Laboratory results: US9289607B2, “Urgency therapy with neuromodulation and C-afferent nerve desensitization” (MEDTRONIC, INC., priority 2010, dated 2016)

What was measured:
Format in all cases: in vivo, Sprague-Dawley rats
[1] = Behaviour after subcutaneous capsaicin injection
Procedure: (§1) Thirty-two rats were chronically treated with capsaicin or vehicle (e.g., solution without capsaicin added). Capsaicin (Sigma-Aldrich, St. Louis, Mo.) was administered to the rats in a vehicle solution containing approximately 20 milligrams (mg)/milliliters (mL) capsaicin in a mixture of approximately 10% ethanol, approximately 10% Tween 80 and approximately 80% physiological saline. For each of the rats, capsaicin (125 mg/kg) was given subcutaneously in the hindlimb in divided doses on 2 consecutive days: on the first day, a first dose of 25 mg/kg was administered, and, twelve hours later, a second dose of 50 mg/kg was administered, and on the second day, a third dose of 50 mg/kg was administered. Injections were performed under isoflurane anesthesia. Control rats received a corresponding volume of vehicles. Experiments on the effect of neurostimulation on rhythmic bladder contraction were conducted approximately 4 days after injection of the third dose was administered. To evaluate the effectiveness of capsaicin pretreatment, an eye wipe test was performed on each unanesthetized animal just before the experiment. A drop of approximately 100 microgram per milliliter (μg/mL) capsaicin solution was instilled into an eye of the animal and the number of defensive wiping movements was counted. […]

[2] = Eye wipe test of capsaicin pretreatment effectiveness; details: drop of 100 μg/mL capsaicin solution in eye; rats pretreated with capsaicin 125 mg/kg s.c.; 16 rats
Procedure: as §1

[3] = tested on: bladder rhythmic contraction; assay: Bladder rhythmic contraction with L6 spinal nerve stimulation after capsaicin pretreatment
Procedure: Female Sprague-Dawley rats weighing approximately 200-300 grams (g) were anesthetized with urethane (in particular, two injections, approximately 4 min apart, total 1.2 g urethane/kilogram (kg) rat). The anesthetized rats were maintained with a hot-water-circulating heating pad during the studies.
To record bladder contractions, a polyethylene cannula (IntraMedic PE50 tubing, Stoelting Co., Wood Dale, Ill.), was placed into the bladder of each of the rats via the urethra and the urethra was ligated to ensure an isovolumetric bladder. The urethral cannula was connected with a T connector and linked with a low volume transducer (ADInstrument MLT0380/D, Colorado Springs, Colo.). The signal was amplified through a DC amplifier (ADInstrument, ML119, Colorado Springs, Colo.). The other end of the T connector was linked to a 20 cubic centimeters (cc) syringe with a perfusion pump.
To deliver electrical stimulation, a wire electrode was placed under the L6 spinal nerves of each of the rats bilaterally. The dorsal skin around sacral and thoracic surface was shaved and a dorsal midline incision was made from approximately spinal nerve L3 to S2. A combination of sharp and blunt dissection was used to expose the left L6/S1 posterior interarticular process. The S1 transverse process was visualized and removed, and the L6 nerves were located caudal and medial to the sacroiliac junction and were then exposed distal to their emergence from the intervertebral foramina. Two bared portions of a teflon-coated, 40-gauge, stainless steel wire (Cooner Wire Co., Chatsworth, Calif.) were placed bilaterally under each of the L6 nerve. A silicone adhesive (Kwik-Cast, World Precision Instruments, Inc, Sarasota, Fla.) was applied to cover the wire around the nerve. The muscle and incision were closed with silk suture. The wire electrode and a needle electrode under the skin of the tail served as the stimulating cathode and the indifferent anode, respectively.
Biphasic pulses having a pulse width of about 0.1 ms and different intensities were used to stimulate the spinal nerve at frequencies ranging from 0.01 Hz to 100 Hz. A Grass S88 stimulator (Grass Technologies, West Warwick, R.I.) with an SIU5 stimulus isolator (Grass Technologies, West Warwick, R.I.) was used to generate stimulus pulses. Electrical stimulation of spinal nerves with pulses of sufficient intensity evoked hind-toe twitches and pelvic floor muscle contractions. In each rat, the motor threshold, defined by the lowest intensity to evoke any of those muscle contractions was tested. The rats with motor threshold over 0.4 mA were excluded from the study. The intensities of stimulation were given either at 0.6 mA or threshold intensity, which was adjusted until the muscle contraction was just discernible in each animal.
as §1, with “experiment.” for “experiment. A drop of approximately 100 microgram per milliliter (μg/mL) capsaicin solution was instilled into an eye of the animal and the number of defensive wiping movements was counted.”

[4] = capsaicin 125 mg/kg s.c. pretreatment 4 days before, mean control before stimulation, 8 rats, mean±SEM
[5] = capsaicin 125 mg/kg s.c. pretreatment, stimulation approximately 0.6 mA, 0.5 Hz

COc1cc(CNC(=O)CCCC/C=C/C(C)C)ccc1O [capsaicin, Capsaicin]
aversive behaviours thereafter ([1]; after the first 3-4 hours, capsaicin 125 mg/kg s.c. in divided doses over 2 days): no aversive behaviors were observed | behaviour following the first capsaicin injection ([1]; approximately 3-4 hours after first capsaicin injection (25 mg/kg s.c., hindlimb)): signs of pain behaviors | reaction in the eye wipe test (defensive wiping movements) [2]: no reaction | average amplitude of bladder contractions prior to neurostimulation [3, 4]: approximately 19.24±1.89 mmHg | mean frequency of bladder contractions prior to neurostimulation [3, 4]: approximately 3.19±0.20 contractions per 5 minutes | persistence of inhibition after stimulation was terminated (FIG. 12A) [3, 5]: more than 20 minutes | rhythmic bladder contractions during spinal nerve stimulation (FIG. 12A) [3, 5]: substantially completely inhibited | bladder contractions with spinal nerve stimulation at threshold intensity (FIG. 12B) ([3]; capsaicin 125 mg/kg s.c. pretreatment, threshold intensity about 0.01 mA, about 10 Hz, particularly after termination of stimulation): attenuated bladder contractions | frequency of the bladder rhythmic contraction ([3]; capsaicin approximately 125 mg/kg s.c. pretreatment, stimulation approximately 0.6 mA, six rats, p<0.05 vs vehicle pretreated, two-way ANOVA (FIG. 13A)): 18±14 % of control | mean frequency and amplitude of bladder contractions, capsaicin-treated versus vehicle-treated rats ([3]; prior to delivery of neurostimulation): did not differ | effect on bladder rhythmic contraction of stimulation at threshold intensity (FIG. 13B) ([3]; threshold intensity approximately 0.01 mA, believed not statistically significant): trend of inhibitory effects
